The text below walks through data of patent publication US20250228239A1, “MOLECULES HAVING PESTICIDAL UTILITY, AND INTERMEDIATES, COMPOSITIONS, AND PROCESSES, RELATED THERETO” (priority 2024, published 2025).

The structures appear in SMILES notation. Where two headings read alike, the source gives them in different places.

Test [1] has as its system Cabbage Looper (Trichoplusia ni, TRIPNI). Kind of test: Bioassays on Cabbage Looper (CL), 128-well diet tray assay. The note with it: Trichoplusia ni. The format is in vivo. The protocol:
(§1) Certain molecules disclosed in this document were tested against BAW and CL using procedures described in the following examples. In the reporting of the results, the “BAW & CL Rating Table” was used (See Table Section).
Bioassays on CL were conducted using a 128-well diet tray assay. One to five second instar CL larvae were placed in each well (3 mL) of the diet tray that had been previously filled with 1 mL of artificial diet to which 50 μg/cm^2 of the test molecule (dissolved in 50 μL of 90:10 acetone-water mixture) had been applied (to each of eight wells) and then allowed to dry. Trays were covered with a clear self-adhesive cover, vented to allow gas exchange, and held at 25° C., 14:10 light-dark for five to seven days. Percent mortality was recorded for the larvae in each well; activity in the eight wells was then averaged. The results are indicated in the table entitled “Table ABC: Biological Results” (See Table Section).

The subject of test [2] is Beet Armyworm (Spodoptera exigua, LAPHEG). The experiment in a line: Bioassays on Beet Armyworm (BAW), 128-well diet tray assay. The format is in vivo. The note with it: Spodoptera exigua. The protocol: as §1
Bioassays on BAW were conducted using a 128-well diet tray assay. One to five second instar BAW larvae were placed in each well (3 mL) of the diet tray that had been previously filled with 1 mL of artificial diet to which 50 μg/cm^2 of the test molecule (dissolved in 50 μL of 90:10 acetone-water mixture) had been applied (to each of eight wells) and then allowed to dry. Trays were covered with a clear self-adhesive cover, vented to allow gas exchange, and held at 25° C., 14:10 light-dark for five to seven days. Percent mortality was recorded for the larvae in each well; activity in the eight wells was then averaged. The results are indicated in the table entitled “Table ABC: Biological Results” (See Table Section).

[3] abbreviates: Cabbage Looper, Table ABC / ABC-DP rating, read-out: CL rating.
Where [4] appears, read: Beet Armyworm, Table ABC / ABC-DP rating, read-out: BAW rating.
Where [5] appears, read: Table ABC: Biological Results, species CL, read-out: CL.
The mark [6] stands for this setting: Table ABC: Biological Results, species BAW, read-out: BAW.
[7] abbreviates: Cabbage Looper, rating class, read-out: CL.
Setting [8] is: Beet Armyworm, rating class, read-out: BAW.

For `O=C(CC(=O)C(F)(F)F)Nc1c(F)ccc(NC(=O)c2cc(NC(=O)[C@H]3[C@H](c4ccc(F)c(C(F)(F)F)c4)C3(Cl)Cl)ccc2Cl)c1F` [F1840, 2-Chloro-5-((1R,3R)-2,2-dichloro-3-(4-fluoro-3-(trifluoromethyl)phenyl)cyclopropane-1-carboxamido)-N-(2,4-difluoro-3-(4,4,4-trifluoro-3-oxobutanamido)phenyl)benzamide], the pest or weed control at 50 µg/cm2 in test [1] (setting [3]) and in test [2] (setting [4]) was 50 to 100% throughout.

As to `CC(=O)Nc1c(C)ccc(NC(=O)c2cc(NC(=O)[C@H]3[C@H](c4cc(Cl)cc(Cl)c4)C3(Cl)Cl)ccc2Cl)c1C` (relative stereo) [F1128, trans-N-(3-Acetamido-2,4-dimethylphenyl)-2-chloro-5-(2,2-dichloro-3-(3,5-dichlorophenyl)cyclopropane-1-carboxamido)benzamide], the pest or weed control at 50 µg/cm2 in test [1] (setting [5]) and in test [2] (setting [6]) was 50 to 100% throughout.

With `CN(NC(=O)c1cc(NC(=O)[C@H]2[C@H](c3cc(Cl)cc(Cl)c3)C2(Cl)Cl)ccc1Cl)C(=O)c1ccccc1` (relative stereo) [F2527, trans-N-(3-(2-Benzoyl-2-methylhydrazine-1-carbonyl)-4-chlorophenyl)-2,2-dichloro-3-(3,5-dichlorophenyl)cyclopropane-1-carboxamide], the pest or weed control at 50 µg/cm2 in test [1] (setting [3]) and in test [2] (setting [4]) was 50 to 100% each time.

Consider `O=C(Nc1ccc(F)c(NC(=O)C(F)(F)F)c1F)c1cc(NC(=O)[C@H]2[C@H](c3ccc(Cl)c(Cl)c3)C2(Cl)Cl)cc(F)c1Cl` [F1288, 2-Chloro-5-((1R,3R)-2,2-dichloro-3-(3,4-dichlorophenyl)cyclopropane-1-carboxamido)-N-(2,4-difluoro-3-(2,2,2-trifluoroacetamido)phenyl)-3-fluorobenzamide], for which the pest or weed control at 50 µg/cm2 in test [1] (setting [5]) and in test [2] (setting [6]) was 50 to 100% each time.

Take `O=C(Nc1c(F)ccc(NC(=O)C(F)(F)C(F)F)c1F)c1cc(NC(=O)[C@H]2[C@H](c3cc(Cl)c(Cl)c(Cl)c3)C2(Cl)Cl)ccc1Cl` [F1534, 2-Chloro-5-((1R,3R)-2,2-dichloro-3-(3,4,5-trichlorophenyl)cyclopropane-1-carboxamido)-N-(2,6-difluoro-3-(2,2,3,3-tetrafluoropropanamido)phenyl)benzamide]: the pest or weed control at 50 µg/cm2 in test [1] (setting [7]) and in test [2] (setting [8]) was 50 to 100% throughout.

Take `Cc1cc(NCC(C)c2ccccc2)ccc1NC(=O)c1cc(NC(=O)[C@H]2[C@H](c3cc(Cl)cc(Cl)c3)C2(Cl)Cl)ccc1Cl` (relative stereo) [F1178, trans-2-Chloro-5-(2,2-dichloro-3-(3,5-dichlorophenyl)cyclopropane-1-carboxamido)-N-(2-methyl-4-((2-phenylpropyl)amino)phenyl)benzamide]: the pest or weed control at 50 µg/cm2 in test [1] (setting [5]) and in test [2] (setting [6]) was 50 to 100% each time.

In the case of `O=C(COCC(F)(F)F)Nc1c(F)ccc(NC(=O)c2cc(NC(=O)[C@H]3[C@H](c4ccc(F)c(C(F)(F)F)c4)C3(Cl)Cl)ccc2Cl)c1F` [F1846, 2-Chloro-5-((1R,3R)-2,2-dichloro-3-(4-fluoro-3-(trifluoromethyl)phenyl)cyclopropane-1-carboxamido)-N-(2,4-difluoro-3-(2-(2,2,2-trifluoroethoxy)acetamido)phenyl)benzamide], the pest or weed control at 50 µg/cm2 in test [1] (setting [3]) and in test [2] (setting [4]) was 50 to 100% in each case.

Regarding `Cc1cc(NCc2ccc(C(F)(F)F)cc2)ccc1NC(=O)c1cc(NC(=O)[C@H]2[C@H](c3cc(Cl)cc(Cl)c3)C2(Cl)Cl)ccc1Cl` (relative stereo) [F1165, trans-2-Chloro-5-(2,2-dichloro-3-(3,5-dichlorophenyl)cyclopropane-1-carboxamido)-N-(2-methyl-4-((4-(trifluoromethyl)benzyl)amino)phenyl)benzamide], the pest or weed control at 50 µg/cm2 in test [1] (setting [5]) and in test [2] (setting [6]) was 50 to 100% throughout.

On to `Nc1c(F)ccc(NC(=O)c2cc(NC(=O)[C@H]3[C@H](c4ccc(F)c(I)c4)C3(Cl)Cl)ccc2Cl)c1F` (relative stereo) [F1622, trans-N-(3-Amino-2,4-difluorophenyl)-2-chloro-5-(2,2-dichloro-3-(4-fluoro-3-iodophenyl)cyclopropane-1-carboxamido)benzamide], for which the pest or weed control at 50 µg/cm2 in test [1] (setting [7]) and in test [2] (setting [8]) was 50 to 100% each time.

With `CC(=O)Nc1cc(NC(=O)c2cc(NC(=O)[C@H]3[C@H](c4ccc(Cl)c(Cl)c4)C3(Cl)Cl)cc(C)c2Cl)c(F)cc1F` [F1546, N-(5-Acetamido-2,4-difluorophenyl)-2-chloro-5-((1R,3R)-2,2-dichloro-3-(3,4-dichlorophenyl)cyclopropane-1-carboxamido)-3-methylbenzamide], the pest or weed control at 50 µg/cm2 in test [1] (setting [7]) and in test [2] (setting [8]) was 50 to 100% in each case.

`CN(C(=O)c1c(Cl)ccc(NC(=O)[C@H]2[C@H](c3ccc(F)c(Cl)c3)C2(Cl)Cl)c1Cl)c1ccc(N)cc1` (relative stereo) [F1106, trans-N-(4-Aminophenyl)-2,6-dichloro-3-(2,2-dichloro-3-(3-chloro-4-fluorophenyl)cyclopropane-1-carboxamido)-N-methylbenzamide]: the values for the pest or weed control at 50 µg/cm2 in test [1] (setting [5]) and in test [2] (setting [6]) were 0 to 50% and 50 to 100%, respectively.

Take `O=C(NNc1ccccc1)c1cc(NC(=O)[C@H]2[C@H](c3cc(Cl)cc(Cl)c3)C2(Cl)Cl)ccc1Cl` (relative stereo) [F2556, trans-2,2-Dichloro-N-(4-chloro-3-(2-phenylhydrazine-1-carbonyl)phenyl)-3-(3,5-dichlorophenyl)cyclopropane-1-carboxamide]: the pest or weed control at 50 µg/cm2 in test [1] (setting [3]) and in test [2] (setting [4]) was 50 to 100% each time.

On to `Nc1cc(F)c(NC(=O)c2cc(NC(=O)[C@H]3[C@H](c4ccc(F)c(Cl)c4)C3(Cl)Cl)ccc2Cl)c(F)c1` [F1030, N-(4-Amino-2,6-difluorophenyl)-2-chloro-5-((1R,3R)-2,2-dichloro-3-(3-chloro-4-fluorophenyl)cyclopropane-1-carboxamido)benzamide], for which the pest or weed control at 50 µg/cm2 in test [1] (setting [5]) and in test [2] (setting [6]) was 50 to 100% throughout.

For the molecule `O=C(Nc1ccc(F)c(NC(=O)C(F)F)c1F)c1cc(NC(=O)[C@H]2[C@H](c3ccc(Cl)c(Cl)c3)C2(Cl)Cl)ccc1F` [F1491, 5-((1R,3R)-2,2-Dichloro-3-(3,4-dichlorophenyl)cyclopropane-1-carboxamido)-N-(3-(2,2-difluoroacetamido)-2,4-difluorophenyl)-2-fluorobenzamide], the pest or weed control at 50 µg/cm2 in test [1] (setting [7]) and in test [2] (setting [8]) was 50 to 100% each time.

In the case of `Cc1cc(NCCC(N)=O)ccc1NC(=O)c1cc(NC(=O)[C@H]2[C@H](c3cc(Cl)cc(Cl)c3)C2(Cl)Cl)ccc1Cl` (relative stereo) [F1158, trans-N-(4-((3-Amino-3-oxopropyl)amino)-2-methylphenyl)-2-chloro-5-(2,2-dichloro-3-(3,5-dichlorophenyl)cyclopropane-1-carboxamido)benzamide], the pest or weed control at 50 µg/cm2 in test [1] (setting [5]) and in test [2] (setting [6]) was 50 to 100% throughout.

In the case of `CC(=O)Nc1ccc(F)c(NC(=O)c2cc(NC(=O)[C@H]3[C@H](c4cc(Cl)c(Cl)c(Cl)c4)C3(Cl)Cl)cc(F)c2Cl)c1F` [F1520, N-(3-Acetamido-2,6-difluorophenyl)-2-chloro-5-((1R,3R)-2,2-dichloro-3-(3,4,5-trichlorophenyl)cyclopropane-1-carboxamido)-3-fluorobenzamide], the pest or weed control at 50 µg/cm2 in test [1] (setting [7]) and in test [2] (setting [8]) was 50 to 100% in each case.

Consider `Cc1cc(NC(=O)[C@H]2[C@H](c3ccc(Cl)c(Cl)c3)C2(Cl)Cl)cc(C(=O)Nc2cc(NC(=O)C(F)F)c(F)cc2F)c1Cl` [F1496, 2-Chloro-5-((1R,3R)-2,2-dichloro-3-(3,4-dichlorophenyl)cyclopropane-1-carboxamido)-N-(5-(2,2-difluoroacetamido)-2,4-difluorophenyl)-3-methylbenzamide], for which the pest or weed control at 50 µg/cm2 in test [1] (setting [7]) and in test [2] (setting [8]) was 50 to 100% in each case.

For `Nc1c(F)ccc(NC(=O)c2cc(NC(=O)[C@H]3[C@H](c4cc(F)cc(Br)c4F)C3(Cl)Cl)ccc2Cl)c1F` (relative stereo) [F1098, trans-N-(3-Amino-2,4-difluorophenyl)-5-(3-(3-bromo-2,5-difluorophenyl)-2,2-dichlorocyclopropane-1-carboxamido)-2-chlorobenzamide], the pest or weed control at 50 µg/cm2 in test [1] (setting [5]) and in test [2] (setting [6]) was 50 to 100% throughout.

Consider `CCNC(=O)c1cc(NC(=O)[C@H]2[C@H](c3ccc(F)c(Cl)c3)C2(Cl)Cl)cc(Cl)c1F` (relative stereo) [F2047, trans-3-Chloro-5-(2,2-dichloro-3-(3-chloro-4-fluorophenyl)cyclopropane-1-carboxamido)-N-ethyl-2-fluorobenzamide], for which the pest or weed control at 50 µg/cm2 in test [1] (setting [3]) and in test [2] (setting [4]) was 50 to 100% each time.
